The target in experiment [1] is Activin receptor type-2B (Homo sapiens) (UniProt Q13705). The experiment can be described thus: Competitive binding affinity to ACVR2B (unknown origin) at 10 uM in presence of ATP relative to control.
The species entered for another experiment is Homo sapiens. Description: Competitive binding affinity to EGFR L747 to E749 deletion mutant, A750P mutant (unknown origin) at 10 uM in presence of ATP relative to control.
Experiment [2] addresses Activated CDC42 kinase 1 (Homo sapiens) (UniProt Q07912). Description: Competitive binding affinity to TNK2 (unknown origin) at 10 uM in presence of ATP relative to control.
Experiment [3] addresses Serine/threonine-protein kinase 10 (Homo sapiens) (UniProt O94804). The experiment can be described thus: Competitive binding affinity to LOK (unknown origin) at 10 uM in presence of ATP relative to control.
The subject of experiment [4] is Mast/stem cell growth factor receptor Kit (Homo sapiens), P10721 [D816V]. The experiment can be described thus: Competitive binding affinity to KIT D816V mutant (unknown origin) at 10 uM in presence of ATP relative to control.
Experiment [5] addresses T1, Serine/threonine-protein kinase D3 (Homo sapiens) (UniProt O94806).
T1 sequence (whole entry): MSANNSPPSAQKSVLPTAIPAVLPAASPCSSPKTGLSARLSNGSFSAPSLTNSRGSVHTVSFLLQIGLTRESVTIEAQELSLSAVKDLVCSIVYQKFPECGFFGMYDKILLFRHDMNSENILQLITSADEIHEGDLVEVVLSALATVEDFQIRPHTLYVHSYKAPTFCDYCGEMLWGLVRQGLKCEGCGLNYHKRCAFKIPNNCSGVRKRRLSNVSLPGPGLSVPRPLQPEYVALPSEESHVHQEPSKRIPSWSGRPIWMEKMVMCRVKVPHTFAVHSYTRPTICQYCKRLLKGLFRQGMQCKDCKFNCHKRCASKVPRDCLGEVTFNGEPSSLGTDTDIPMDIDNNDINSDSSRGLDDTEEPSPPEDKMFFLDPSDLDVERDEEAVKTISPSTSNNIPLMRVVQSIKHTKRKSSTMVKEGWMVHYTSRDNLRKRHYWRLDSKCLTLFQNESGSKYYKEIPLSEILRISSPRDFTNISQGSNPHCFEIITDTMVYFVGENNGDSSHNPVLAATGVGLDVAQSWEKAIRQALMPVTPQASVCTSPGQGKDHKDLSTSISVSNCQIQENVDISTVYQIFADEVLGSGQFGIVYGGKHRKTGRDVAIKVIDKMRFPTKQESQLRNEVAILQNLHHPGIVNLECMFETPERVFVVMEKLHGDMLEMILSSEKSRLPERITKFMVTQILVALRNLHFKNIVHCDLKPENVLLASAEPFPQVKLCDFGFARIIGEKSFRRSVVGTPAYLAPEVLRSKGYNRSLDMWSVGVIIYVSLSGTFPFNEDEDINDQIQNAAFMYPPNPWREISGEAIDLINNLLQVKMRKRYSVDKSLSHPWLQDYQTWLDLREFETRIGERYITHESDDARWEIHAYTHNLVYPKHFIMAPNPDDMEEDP
Description: Competitive binding affinity to PRKD3 (unknown origin) at 10 uM in presence of ATP relative to control.

Experiment [6] has as its target T2, Serine/threonine-protein kinase 17A (Homo sapiens) (UniProt Q9UEE5).
T2 sequence (whole entry): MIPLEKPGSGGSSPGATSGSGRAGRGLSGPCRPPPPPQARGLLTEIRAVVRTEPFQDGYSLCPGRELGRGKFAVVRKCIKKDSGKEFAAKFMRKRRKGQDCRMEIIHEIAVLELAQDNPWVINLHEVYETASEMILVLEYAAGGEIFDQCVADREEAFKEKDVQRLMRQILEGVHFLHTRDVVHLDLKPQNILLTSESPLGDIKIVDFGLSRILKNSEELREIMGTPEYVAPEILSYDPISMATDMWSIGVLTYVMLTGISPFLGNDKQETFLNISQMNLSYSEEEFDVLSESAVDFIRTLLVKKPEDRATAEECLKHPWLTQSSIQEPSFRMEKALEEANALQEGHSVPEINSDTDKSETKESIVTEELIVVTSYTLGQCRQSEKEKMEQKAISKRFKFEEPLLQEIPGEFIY
Description: Competitive binding affinity to DRAK1 (unknown origin) at 10 uM in presence of ATP relative to control.

The target of experiment [7] is T3, Tyrosine-protein kinase Tec (Homo sapiens) (UniProt P42680).
T3 sequence (whole entry): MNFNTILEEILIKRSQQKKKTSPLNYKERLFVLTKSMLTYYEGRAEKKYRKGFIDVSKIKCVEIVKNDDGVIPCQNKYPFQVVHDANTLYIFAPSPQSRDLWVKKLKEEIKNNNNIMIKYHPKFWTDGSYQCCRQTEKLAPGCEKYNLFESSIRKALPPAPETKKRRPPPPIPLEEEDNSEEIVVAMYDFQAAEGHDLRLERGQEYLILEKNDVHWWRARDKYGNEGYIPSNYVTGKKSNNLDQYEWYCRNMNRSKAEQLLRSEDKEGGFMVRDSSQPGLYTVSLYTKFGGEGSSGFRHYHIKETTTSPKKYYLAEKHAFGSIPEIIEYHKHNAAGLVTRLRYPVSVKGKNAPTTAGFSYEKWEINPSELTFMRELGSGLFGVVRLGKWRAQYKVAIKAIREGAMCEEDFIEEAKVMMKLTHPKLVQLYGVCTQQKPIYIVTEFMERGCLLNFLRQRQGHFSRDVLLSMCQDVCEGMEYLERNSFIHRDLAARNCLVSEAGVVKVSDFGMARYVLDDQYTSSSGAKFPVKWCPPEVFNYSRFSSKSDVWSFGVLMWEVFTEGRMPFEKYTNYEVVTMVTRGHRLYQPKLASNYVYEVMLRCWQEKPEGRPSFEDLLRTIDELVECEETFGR
Description: Competitive binding affinity to TEC (unknown origin) at 10 uM in presence of ATP relative to control.

Experiment [8] has as its target Phosphatidylinositol 4,5-bisphosphate 3-kinase catalytic subunit alpha isoform (Homo sapiens) (UniProt P42336). Description: Competitive binding affinity to PIK3CA (unknown origin) at 10 uM in presence of ATP relative to control.
In experiment [9] the target is T4, Dual specificity mitogen-activated protein kinase kinase 4 (Homo sapiens) (UniProt P45985).
T4 sequence (whole entry): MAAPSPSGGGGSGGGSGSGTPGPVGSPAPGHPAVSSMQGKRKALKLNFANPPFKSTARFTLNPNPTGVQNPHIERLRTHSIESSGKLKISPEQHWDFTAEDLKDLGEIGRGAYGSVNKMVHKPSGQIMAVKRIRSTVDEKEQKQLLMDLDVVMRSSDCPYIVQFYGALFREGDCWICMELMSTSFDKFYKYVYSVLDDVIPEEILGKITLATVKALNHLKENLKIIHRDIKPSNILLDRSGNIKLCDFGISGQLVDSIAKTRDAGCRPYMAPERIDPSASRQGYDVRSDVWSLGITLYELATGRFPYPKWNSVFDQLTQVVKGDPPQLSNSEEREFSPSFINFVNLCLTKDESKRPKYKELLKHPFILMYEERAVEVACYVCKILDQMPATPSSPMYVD
The experiment can be described thus: Competitive binding affinity to MEK4 (unknown origin) at 10 uM in presence of ATP relative to control.

Sequence of Activin receptor type-2B (Homo sapiens) (Q13705 whole entry): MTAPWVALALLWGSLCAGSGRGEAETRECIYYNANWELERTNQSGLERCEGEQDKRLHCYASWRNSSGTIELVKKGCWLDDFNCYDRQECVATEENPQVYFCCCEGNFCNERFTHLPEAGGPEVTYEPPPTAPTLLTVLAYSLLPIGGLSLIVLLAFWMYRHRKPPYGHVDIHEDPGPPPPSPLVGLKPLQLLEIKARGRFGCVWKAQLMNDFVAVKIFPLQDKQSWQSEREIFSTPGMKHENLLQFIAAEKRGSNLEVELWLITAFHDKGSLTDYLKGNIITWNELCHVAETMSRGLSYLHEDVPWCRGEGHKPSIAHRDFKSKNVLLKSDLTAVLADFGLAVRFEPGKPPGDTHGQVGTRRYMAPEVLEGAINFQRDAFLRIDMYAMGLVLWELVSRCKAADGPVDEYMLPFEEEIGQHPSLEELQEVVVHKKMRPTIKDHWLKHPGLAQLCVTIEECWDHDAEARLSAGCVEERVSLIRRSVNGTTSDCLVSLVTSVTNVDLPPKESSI
Sequence of Phosphatidylinositol 4,5-bisphosphate 3-kinase catalytic subunit alpha isoform (Homo sapiens) (P42336 whole entry, canonical isoform): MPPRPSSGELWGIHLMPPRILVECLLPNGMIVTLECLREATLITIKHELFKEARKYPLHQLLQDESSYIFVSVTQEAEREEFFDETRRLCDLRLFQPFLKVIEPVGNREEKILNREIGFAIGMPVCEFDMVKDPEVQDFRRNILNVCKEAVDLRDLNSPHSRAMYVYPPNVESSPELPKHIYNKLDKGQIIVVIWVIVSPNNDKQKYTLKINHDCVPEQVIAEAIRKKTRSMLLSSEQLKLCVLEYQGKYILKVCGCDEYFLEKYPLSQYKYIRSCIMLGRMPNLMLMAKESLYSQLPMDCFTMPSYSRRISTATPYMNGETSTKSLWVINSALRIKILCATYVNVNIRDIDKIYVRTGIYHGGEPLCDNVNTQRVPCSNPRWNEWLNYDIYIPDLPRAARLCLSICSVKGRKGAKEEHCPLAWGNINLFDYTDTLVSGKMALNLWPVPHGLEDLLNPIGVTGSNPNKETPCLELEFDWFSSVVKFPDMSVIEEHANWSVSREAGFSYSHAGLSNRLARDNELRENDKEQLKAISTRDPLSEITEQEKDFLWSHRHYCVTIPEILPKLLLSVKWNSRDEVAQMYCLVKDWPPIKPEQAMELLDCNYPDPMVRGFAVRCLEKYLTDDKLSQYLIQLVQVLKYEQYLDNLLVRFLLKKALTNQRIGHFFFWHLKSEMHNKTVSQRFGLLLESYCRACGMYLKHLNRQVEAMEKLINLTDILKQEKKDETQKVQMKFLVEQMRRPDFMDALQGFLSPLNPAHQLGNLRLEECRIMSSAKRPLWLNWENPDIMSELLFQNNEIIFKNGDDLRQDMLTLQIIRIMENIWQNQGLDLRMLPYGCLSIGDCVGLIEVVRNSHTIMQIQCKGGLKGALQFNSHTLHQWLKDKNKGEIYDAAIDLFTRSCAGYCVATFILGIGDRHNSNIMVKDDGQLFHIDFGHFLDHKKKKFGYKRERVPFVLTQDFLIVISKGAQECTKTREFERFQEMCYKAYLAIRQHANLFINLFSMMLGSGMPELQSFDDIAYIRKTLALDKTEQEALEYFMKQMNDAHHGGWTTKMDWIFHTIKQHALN
Sequence of Activated CDC42 kinase 1 (Homo sapiens) (Q07912 whole entry, looked up): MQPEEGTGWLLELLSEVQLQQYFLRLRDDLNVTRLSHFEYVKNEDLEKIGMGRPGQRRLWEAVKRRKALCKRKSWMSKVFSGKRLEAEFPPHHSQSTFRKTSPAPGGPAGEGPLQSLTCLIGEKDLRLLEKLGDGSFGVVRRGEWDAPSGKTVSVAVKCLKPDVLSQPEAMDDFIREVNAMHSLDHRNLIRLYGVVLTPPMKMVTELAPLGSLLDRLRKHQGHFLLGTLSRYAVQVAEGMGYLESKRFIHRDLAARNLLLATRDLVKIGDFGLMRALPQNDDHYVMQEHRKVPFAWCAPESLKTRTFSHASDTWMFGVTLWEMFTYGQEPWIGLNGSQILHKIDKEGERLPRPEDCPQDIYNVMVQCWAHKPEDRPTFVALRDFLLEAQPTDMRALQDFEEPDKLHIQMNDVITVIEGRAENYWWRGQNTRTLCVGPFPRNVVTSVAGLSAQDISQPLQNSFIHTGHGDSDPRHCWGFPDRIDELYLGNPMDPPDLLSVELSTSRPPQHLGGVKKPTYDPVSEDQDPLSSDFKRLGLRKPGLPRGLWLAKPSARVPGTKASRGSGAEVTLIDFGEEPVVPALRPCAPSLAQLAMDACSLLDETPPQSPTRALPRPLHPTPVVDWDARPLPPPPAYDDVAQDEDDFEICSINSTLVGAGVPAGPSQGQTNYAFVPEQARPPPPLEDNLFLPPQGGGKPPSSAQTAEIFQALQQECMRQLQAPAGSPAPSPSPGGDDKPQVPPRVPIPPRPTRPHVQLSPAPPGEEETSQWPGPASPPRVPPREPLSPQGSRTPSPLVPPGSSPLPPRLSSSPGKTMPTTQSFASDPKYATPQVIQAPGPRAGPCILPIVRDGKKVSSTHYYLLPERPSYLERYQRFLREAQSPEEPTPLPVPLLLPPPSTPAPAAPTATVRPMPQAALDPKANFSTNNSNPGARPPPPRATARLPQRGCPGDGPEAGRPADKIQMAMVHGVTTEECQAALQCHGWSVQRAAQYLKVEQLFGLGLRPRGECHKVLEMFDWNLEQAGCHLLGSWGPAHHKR
Sequence of Serine/threonine-protein kinase 10 (Homo sapiens) (O94804 whole entry, looked up): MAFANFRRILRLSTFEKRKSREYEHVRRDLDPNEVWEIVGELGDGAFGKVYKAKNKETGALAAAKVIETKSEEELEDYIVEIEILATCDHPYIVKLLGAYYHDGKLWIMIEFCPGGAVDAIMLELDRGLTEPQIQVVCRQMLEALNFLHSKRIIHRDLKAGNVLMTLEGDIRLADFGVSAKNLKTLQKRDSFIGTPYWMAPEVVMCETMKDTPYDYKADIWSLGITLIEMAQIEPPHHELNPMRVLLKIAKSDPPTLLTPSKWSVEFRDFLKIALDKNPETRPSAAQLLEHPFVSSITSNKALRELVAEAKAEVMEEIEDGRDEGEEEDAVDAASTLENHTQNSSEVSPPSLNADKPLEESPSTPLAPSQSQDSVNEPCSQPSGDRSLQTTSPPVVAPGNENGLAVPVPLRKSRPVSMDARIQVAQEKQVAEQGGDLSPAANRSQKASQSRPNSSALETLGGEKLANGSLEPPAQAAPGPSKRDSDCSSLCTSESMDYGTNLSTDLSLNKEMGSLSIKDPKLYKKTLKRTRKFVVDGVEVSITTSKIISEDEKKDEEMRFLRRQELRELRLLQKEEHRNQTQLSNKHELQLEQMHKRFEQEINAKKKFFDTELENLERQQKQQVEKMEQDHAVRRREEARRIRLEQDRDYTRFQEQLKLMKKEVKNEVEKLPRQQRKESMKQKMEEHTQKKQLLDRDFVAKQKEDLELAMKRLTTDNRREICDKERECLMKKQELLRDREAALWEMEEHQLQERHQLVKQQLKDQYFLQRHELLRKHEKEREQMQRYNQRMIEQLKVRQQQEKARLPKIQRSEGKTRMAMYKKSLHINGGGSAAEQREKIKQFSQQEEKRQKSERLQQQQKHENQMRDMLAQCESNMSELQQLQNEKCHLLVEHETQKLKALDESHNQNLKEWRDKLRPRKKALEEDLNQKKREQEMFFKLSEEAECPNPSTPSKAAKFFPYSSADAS
Sequence of Mast/stem cell growth factor receptor Kit (Homo sapiens), P10721 [D816V] (P10721 whole entry D816V): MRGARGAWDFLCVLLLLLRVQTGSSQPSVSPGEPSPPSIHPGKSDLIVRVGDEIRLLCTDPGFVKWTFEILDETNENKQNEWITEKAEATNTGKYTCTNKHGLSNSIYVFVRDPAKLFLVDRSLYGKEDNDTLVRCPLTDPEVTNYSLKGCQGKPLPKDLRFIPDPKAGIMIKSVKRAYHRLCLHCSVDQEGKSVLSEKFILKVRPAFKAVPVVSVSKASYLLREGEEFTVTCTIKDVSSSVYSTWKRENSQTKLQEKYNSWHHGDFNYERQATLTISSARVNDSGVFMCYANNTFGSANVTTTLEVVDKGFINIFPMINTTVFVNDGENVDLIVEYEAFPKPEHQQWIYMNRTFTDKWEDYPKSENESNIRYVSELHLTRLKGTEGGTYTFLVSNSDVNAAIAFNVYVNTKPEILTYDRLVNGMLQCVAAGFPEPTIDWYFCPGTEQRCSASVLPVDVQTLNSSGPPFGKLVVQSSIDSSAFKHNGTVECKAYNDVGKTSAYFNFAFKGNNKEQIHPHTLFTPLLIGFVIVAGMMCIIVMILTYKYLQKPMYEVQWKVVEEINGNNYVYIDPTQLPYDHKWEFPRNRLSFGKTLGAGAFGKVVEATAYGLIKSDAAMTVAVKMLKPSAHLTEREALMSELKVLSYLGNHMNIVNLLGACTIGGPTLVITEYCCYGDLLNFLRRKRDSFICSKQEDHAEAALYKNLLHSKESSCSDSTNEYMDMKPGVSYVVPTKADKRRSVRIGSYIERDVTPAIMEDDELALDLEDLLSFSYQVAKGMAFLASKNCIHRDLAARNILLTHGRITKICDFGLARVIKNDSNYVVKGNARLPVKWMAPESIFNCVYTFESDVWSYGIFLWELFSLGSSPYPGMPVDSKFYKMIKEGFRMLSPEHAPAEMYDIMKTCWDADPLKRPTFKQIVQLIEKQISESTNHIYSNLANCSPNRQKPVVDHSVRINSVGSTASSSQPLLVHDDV

Consider `O[C@H]1CC[C@H](Nc2nccc(-c3n[nH]c4ccccc34)n2)CC1`, for which the inhibition (usually the drop in the measured response relative to a control, in per cent) in [1] is under 50%; in the experiment filed under Homo sapiens, under 50%; in experiment [2] it was under 50%; in experiment [3], 88%; in [4], 94%.
Consider `O[C@H]1CC[C@H](Nc2nccc(-n3ccc4ccccc43)n2)CC1`, for which the inhibition in [5] was 94%; in [1], under 50%; in the experiment filed under Homo sapiens, under 50%; in [2], under 50%; in experiment [6] it was 98%; in experiment [7], under 50%. The inhibition in [8] is under 50%; in experiment [3] it was under 50%; in [9], 97%; in experiment [4] it was under 50%.
`O[C@H]1CC[C@H](Nc2nccc(-n3ncc4ccccc43)n2)CC1`: the inhibition was 96% in experiment [5]; under 50% in experiment [1]; under 50% in the experiment filed under Homo sapiens; under 50% in experiment [2]; 99% in experiment [6]; under 50% in experiment [7]. The inhibition was 78% in [8], under 50% in [3], 99% in experiment [9] and 63% in [4].
As for `O[C@H]1CC[C@H](Nc2nccc(-n3nnc4ccccc43)n2)CC1`, the inhibition was 100% in experiment [5]; 74% in experiment [1]; under 50% in the experiment filed under Homo sapiens; under 50% in experiment [2]; 100% in experiment [6]; under 50% in experiment [7]. The inhibition is 84% in [8], under 50% in [3], 99% in [9] and 98% in [4].
Consider `CS(=O)(=O)CCCOc1cccc2c1ccn2-c1ccnc(N[C@H]2CC[C@H](C(=O)N3CCC(O)CC3)CC2)n1`, for which the inhibition in [6] and in experiment [9] was over 85% each time.

(Values after ChEMBL document CHEMBL2424622, “Development of amino-pyrimidine inhibitors of c-Jun N-terminal kinase (JNK): kinase profiling guided optimization of a 1,2,3-benzotriazole lead” (Bioorg Med Chem Lett, 2013).)
